Measurements reported in patent publication US11291674B2 (CALITHERA BIOSCIENCES, INC., priority 2016, dated 2022).

What was measured:
[1] = test system: G-MDSC-mediated suppression of T cell proliferation; assay: T cell proliferation in media conditioned by G-MDSC of a lung cancer patient; type: cell-based, human
Protocol: T cell/myeloid cell co-culture assays. […] Granulocytes were incubated for 48 h at 37° C., during which time they spontaneously activate as determined by surface expression of CD66b and scatter properties. T cells isolated from the same donor using a pan-T cell isolation kit (Stemcell Technologies) were loaded with CFSE and plated with immobilized anti-CD3 and soluble anti-CD28 in the presence of the aged granulocytes. The cells were co-cultured at several ratios of granulocytes to T cells as indicated or at a fixed ratio of 4 T cells to 1 granulocyte. Co-cultures were incubated for 3-4 days, at which time media were analyzed for L-arginine and L-ornithine by mass spectrometry and T cell proliferation was determined by flow cytometry. Granulocytic MDSC (G-MDSC) or granulocytes from cancer patients were isolated from whole blood purchased from Conversant Biologics. G-MDSCs were purified from the PBMC layer of a Ficoll gradient by positive selection for CD66b^+ cells. Granulocytes were purified from the RBC layer of a Ficoll gradient using Hetasep (Stemcell Technologies). […] Cytokines were quantified in the media from T cell co-culture assays using the Cytometric Bead Array kit according to the manufacturer's instructions (BD Biosciences).

[2] = test system: granulocyte-mediated suppression of T cell proliferation; assay: T cell/granulocyte co-culture assay, healthy donor; type: cell-based, human
Protocol: T cell and NK cell proliferation assays. T cells or NK cells were purified from healthy donor human blood or from murine splenocytes using a negative selection kit for the appropriate cell type and species from Stemcell Technologies. Isolated T cells or NK cells were loaded with carboxyfluorescein succinimidyl ester (CFSE, Thermo Fisher) and stimulated for 72-96 h in complete growth media containing a minimum of either 50 µM L-arginine (NK cells) or 100 μM L-arginine (T cells). […] Proliferation was quantified by analyzing CFSE dilution by flow cytometry (Guava flow cytometer, Millipore, Billerica, Mass. or Attune N×T flow cytometer, ThermoFisher).
T cell/myeloid cell co-culture assays. […] Granulocytes were incubated for 48 h at 37° C., during which time they spontaneously activate as determined by surface expression of CD66b and scatter properties. […] Co-cultures were incubated for 3-4 days, at which time media were analyzed for L-arginine and L-ornithine by mass spectrometry and T cell proliferation was determined by flow cytometry. […] Cytokines were quantified in the media from T cell co-culture assays using the Cytometric Bead Array kit according to the manufacturer's instructions (BD Biosciences).

[3] = test system: LLC tumors; assay: LLC tumors in mice with conditional Arg1 deletion in the myeloid lineage; type: in vivo, mouse; conditions: 100 mg/kg every 12 h for 14 days
From the text: Conditional Arg1 deleted mice. Arg1 floxed mice were crossed to the Tie2-Cre deleter strain (The Jackson Laboratory) as previously described. Experimental mice were generated from crossing Arg1^Flox/Flox; Tie2-Cre^+ males with Arg1^Flox/Flox; Tie2-Cre^+ females, with Cre negative littermates serving as wild-type controls. Mice were housed and used in accordance with protocols approved by the Institutional Animal Care and Use Committee at St. Jude Children's Research Hospital. LLC cells (1×10^6 per mouse) were injected s.c. in the flank region. […] Mice were euthanized, and tumors excised and weights recorded. Myeloid deletion of Arg1 was confirmed via western blotting of IL-4-stimulated bone marrow-derived macrophages for all animals.

[4] = test system: B16 tumors; assay: Adoptive T cell transfer study, B16 model; type: in vivo, mouse; conditions: compared to either single agent; all groups cyclophosphamide plus fludarabine
Protocol: Adoptive T cell transfer studies. Activated gp100-specific CD8^+ (Pmel-1) T cells were generated as described in Ya et al. Briefly, splenocytes from Pmel-1 TCR transgenic mice were isolated, pulsed with 1 μM of murine gp10025-33 (Anaspec, Fremont, Calif.) and expanded for 1 week in the presence of 60 IU/mL recombinant human IL-2 (Peprotech, Rocky Hill, N.J.). Cells were >90% CD8^+Vβ13^+ T cells as determined by flow cytometry. C57BL/6 mice were inoculated s.c. with B16 tumor cells. […] On day 7, lymphopenia was induced by a non-myeloablative chemotherapy regimen of 250 mg/kg cyclophosphamide and 50 mg/kg fludarabine administered i.p. The chemotherapy regimen was administered to all groups. On day 9, mice were administered 1×10^6 Pmel-1 T cells intravenously (i.v.). Mice receiving Pmel-1 T cells also received recombinant human IL-2 (200,000 IU/dose) administered i.p. twice daily for 3 days starting the day of T cell transfer.

[5] = test system: cancer patient granulocyte-mediated suppression of T cell proliferation; assay: T cell proliferation in media conditioned by granulocytes of a head and neck cancer patient; type: cell-based, human
Protocol: T cell/myeloid cell co-culture assays. […] Granulocytes were incubated for 48 h at 37° C., during which time they spontaneously activate as determined by surface expression of CD66b and scatter properties. T cells isolated from the same donor using a pan-T cell isolation kit (Stemcell Technologies) were loaded with CFSE and plated with immobilized anti-CD3 and soluble anti-CD28 in the presence of the aged granulocytes. The cells were co-cultured at several ratios of granulocytes to T cells as indicated or at a fixed ratio of 4 T cells to 1 granulocyte. Co-cultures were incubated for 3-4 days, at which time media were analyzed for L-arginine and L-ornithine by mass spectrometry and T cell proliferation was determined by flow cytometry. Granulocytic MDSC (G-MDSC) or granulocytes from cancer patients were isolated from whole blood purchased from Conversant Biologics. G-MDSCs were purified from the PBMC layer of a Ficoll gradient by positive selection for CD66b^+ cells. Granulocytes were purified from the RBC layer of a Ficoll gradient using Hetasep (Stemcell Technologies). G-MDSC or granulocytes were incubated in co-culture media containing 100 μM L-arginine for 48 h, at which time the cells were removed and the G-MDSC- or granulocyte-conditioned media were used for incubating healthy donor CFSE-loaded T cells on immobilized anti-CD3/soluble anti-CD28 for 3-4 days. Cytokines were quantified in the media from T cell co-culture assays using the Cytometric Bead Array kit according to the manufacturer's instructions (BD Biosciences).

[6] = test system: LLC cell line; assay: Cytotoxicity assay (CellTiterGlo), LLC; type: cell-based, murine; conditions: 1 mM arginase inhibitor, 72 h
Protocol: Cytotoxicity assays. […] Cytotoxicity was assayed by the addition of CellTiterGlo reagent according to the manufacturer's instructions (Promega, Madison, Wis.) followed by […] quantification on a Molecular Devices plate reader (Sunnyvale, Calif.).

## C[C@H](N)C(=O)N1C[C@H](CCCB(O)O)[C@](N)(C(=O)O)C1 [arginase inhibitor]
[1]; G-MDSC of a lung cancer patient
  Arginine depletion of the media: arginine depletion was blocked
[1]; media conditioned by G-MDSC of a lung cancer patient
  T cell proliferation restored, of control levels: 99%
[2]; co-culture with healthy donor granulocytes
  T cell proliferation restored, of the proliferation observed for T cells without granulocytes: 90%
[2]; healthy donor granulocytes
  Depletion of L-arginine from the media by granulocytes: blocked depletion of L-arginine
[3]
  Tumor growth in Arg flox/flox; Tie2-Cre+ (ARG1 ΔM) animals: no further reduction in tumor growth
[4]
  Tumor growth, combination with T cells specific for the PMEL tumor antigen: significantly reduced tumor growth
[5]; T cells in cancer patient granulocyte-conditioned media
  Secretion of interferon-γ and granzyme-B into the media: restored secretion
[5]; granulocytes of a head and neck cancer patient
  Arginine depletion of the media: arginine depletion was blocked
[5]; media conditioned by granulocytes of a head and neck cancer patient
  T cell proliferation restored, of control levels: 79%
[6]
  Growth inhibition of LLC cell line: No growth inhibition
